Reference: patent US9180118B2, “Thiadiazolidinone derivatives” (University of Rochester, priority 2006, dated 2015)
“And” between values parts separate entries of the source, which are not always exact repeats. Equal values may be shown once. Read-outs that look alike come from different tables or passages of the source.

How the values were obtained:
primary AML specimens = assay: Viability of primary AML specimens, Annexin V/7-AAD flow cytometry; type: cell-based, human
Experimental: (§1) The cells were isolated and processed as described. […] All drug treatments were performed in triplicate. […] Total viable cell numbers were determined using a flow cytometric apoptosis assay as described. Briefly, after 18 h of treatment, specimens were labeled with anti-CD34-PE (Becton Dickinson, San Jose, Calif.) for 20 minutes. […] The total number of events collected was 100,000. The percent viable cells was defined as AnnexinV^neg/7-AAD^neg cells on total (ungated) cells and on gates set for CD34^+ populations. • [1] Jordan, C. T., et al., The interleukin-3 receptor alpha chain is a unique marker for human acute myelogenous leukemia stem cells. Leukemia, 2000. 14(10): p. […] Lansdorp, P. M. and W. Dragowska, Long-term erythropoiesis from constant numbers of CD34+ cells in serum-free cultures initiated with highly purified progenitor cells from human bone marrow. […] Guzman, M. L., et al., Nuclear factor-kappaB is constitutively activated in primitive human acute myelogenous leukemia cells. […] 98(8): p.

primary CLL specimens = assay: Viability of primary CLL specimens, Annexin V/7-AAD; type: cell-based; settings: Homo sapiens, 24 h; read-out: mean viability relative to untreated controls
primary ALL specimens = assay: Viability of primary ALL specimens, Annexin V/7-AAD; type: cell-based; settings: Homo sapiens, 24 h; read-out: mean viability relative to untreated controls
[1] = test system: primary blast crisis CML (bcCML) specimens; assay: Viability of primary bcCML specimens, Annexin V/7-AAD; type: cell-based; settings: Homo sapiens, 24 h; read-out: mean viability relative to untreated controls
[2] = Viability of normal specimens (BM, CB, MPB), Annexin V/7-AAD; type: cell-based, human; settings: human; read-out: cell viability relative to untreated controls
Experimental: as §1

[3] = test system: normal specimens (BM, CB, MPB); assay: as above; type: cell-based, human; settings: normal specimens
Experimental: as §1

[4] = type: cell-based; settings: human, CD34+CD38− cells gated from healthy (normal) specimens
normal progenitor cells = assay: Methylcellulose colony assay, normal specimens; type: cell-based, human; settings: 20 μM TDZD-8, 18 hours before plating, n=12
Experimental: (§2) Cells were then plated at 50,000 cells/ml in Methocult™ GF H4534 (1% methylcellulose in IMDM, 30% FBS, 1% BSA, 10^−4M 2-mercaptoethanol, 2 mM L-glutamine, 50 ng/ml rh stem cell factor, 10 ng/ml rh GM-CSF, 10 ng/ml rh IL-3-Stem Cell Technologies, Vancouver, B.C.) supplemented with 3 units/ml of erythropoietin and 50 ng/ml G-CSF (R&D Systems, Minneapolis, Minn.). Colonies were scored after 10-14 days of culture.

AML progenitor cells = assay: Methylcellulose colony assay, AML; type: cell-based, human; settings: 20 μM TDZD-8, 18 hours before plating, n=11
Experimental: as §2

[5] = test system: normal specimens (BM or CB); assay: Membrane integrity by YoPro-1 uptake, normal specimens; type: cell-based, human; settings: 20 μM TDZD-8 for 15 min
Experimental: C. […] Cells were then washed with PBS and stained to assess membrane permeability using annexin V-Allophycocyanin (APC) and the vital dyes: Yo-[…] (0.1 uM), Hoescht 33342 (2.5 ug/ml), and Propidium Iodide (0.5 ug/ml) (Molecular Probes).

[6] = test system: plasma membrane localized PKCα and β in primary CD34+ AML and ALL cells; assay: Immunoblot of membrane fractions for PKCα and PKCβ; type: cell-based, human; settings: TDZD-8 for 1 hour
Experimental: Immunoblots. Cells were prepared and analyzed as previously described.^35 Membrane fractions were prepared using mem-PER eukaryotic membrane protein extraction kit as per manufacturer's instructions (Pierce; Rockford, Ill.). Blots were probed with phospho-PKC (pan) (beta II; Ser660), phospho-PKCalpha/betaII (Thr638/641), total PKCα, PKCβ and FLT3 (Santa Cruz Biotechnology, Calif.), Caspase-3 (Cell Signaling technologies; Danvers, Mass.); caspase-8 and PARP (BD bioscience), cleaved PARP (abcam) or anti-actin (AC-15; Sigma) antibodies.

[7] = test system: phospho-FLT3 in CD34+ AML cells; assay: Phospho-FLT3 flow cytometry, CD34+ population of primary AML; type: cell-based, human; settings: 30 minutes after addition of drug
[8] = test system: Breast cancer, 7 cell lines; assay: NCI-60 screen; type: cell-based; settings: Homo sapiens
Description: (§3) In contrast the cell viability for normal specimens was 79.5% (n=13).

CCRF-CEM = assay: NCI-60 screen; type: cell-based; settings: Homo sapiens
Description: as §3

CNS cancer, 6 cell lines = assay: NCI-60 screen; type: cell-based; settings: Homo sapiens
Description: as §3

[9] = test system: Colon cancer, 7 cell lines; assay: NCI-60 screen; type: cell-based; settings: Homo sapiens
Description: as §3

HL-60 = assay: NCI-60 screen; type: cell-based; settings: Homo sapiens
Description: as §3

Melanoma, 8 cell lines = assay: NCI-60 screen; type: cell-based; settings: Homo sapiens
Description: as §3

[10] = test system: Non-small cell lung cancer, 9 cell lines; assay: NCI-60 screen; type: cell-based; settings: Homo sapiens
Description: as §3

[11] = test system: Ovarian cancer, 5 cell lines; assay: NCI-60 screen; type: cell-based; settings: Homo sapiens
Description: as §3

[12] = test system: Prostate cancer, 2 cell lines; assay: NCI-60 screen; type: cell-based; settings: Homo sapiens
Description: as §3

RPMI-8226 = assay: NCI-60 screen; type: cell-based; settings: Homo sapiens
Description: as §3

[13] = test system: Renal cancer, 7 cell lines; assay: NCI-60 screen; type: cell-based; settings: Homo sapiens
Description: as §3

SR = assay: NCI-60 screen; type: cell-based; settings: Homo sapiens
Description: as §3

[14] = test system: cell lines derived from hematologic malignancies; assay: NCI-60 screen, average; type: cell-based; settings: Homo sapiens; average over hematologic lines of NCI-60; read-out: average concentration to achieve 50% growth inhibition (GI50)
Description: as §3

PICA = PICA (Homo sapiens, UniProt P17612); settings: reported; cited from earlier work
[15] = read-out: Log10 GI50 (converted)

For Cn1sc(=O)n(Cc2ccccc2)c1=O [TDZD-8, 4-benzyl-2-methyl-1,2,4-thiadiazolidine-3,5-dione], the viability at 20 µM (primary AML specimens; Homo sapiens, 24 h, read-out: mean viability relative to untreated controls) was 15%, the “treatment time that may also be effective” value (primary AML specimens; additional preliminary data, not shown) was no more than 5 min and the “mean time to achieve ≧50% cell death” value (primary AML specimens; bulk leukemia blast populations, 17 primary specimens) was 2 h. The Rapid kinetics (primary AML specimens; cell death kinetics) was “Yes”, the “time within which most toxicity is evident” value (primary AML specimens; leukemia cells) was 1 to 6 h and the “Cytotoxic AML” value (primary AML specimens; primary AML specimens) was “Yes”. For the same compound, the “time of TDZD-8 exposure at which cell death was frequently evident” value (primary AML specimens; primary AML, bcCML, ALL and CLL specimens) was no more than 2 h, the viability (primary AML specimens; three of 17 specimens, within 30 minutes) was “below 30%” and the viability at 20 µM (primary CLL specimens) was 7.2%. It also gave a viability at 20 µM (primary ALL specimens) of 12.4%, a viability at 20 µM [1] of 21.6% and a viability at 24 h, 20 μM [2] of 79.5%. For the same compound, the “Cytotoxic Normal” value [3] was “No”, the viability at 24 h, 20 μM [4] was 80.2% and the “erythroid colonies, normalized to untreated controls” value (normal progenitor cells) was 94.79%. The “myeloid colonies, normalized to untreated controls” value (normal progenitor cells) was 84.14%, the “CFU, normalized to untreated controls” value (AML progenitor cells) was 7.3% and the “rapid uptake of YoPro-1” value [5] was “not evident in normal specimens”. The “plasma membrane localized PKCα and β” value [6] was “decreases”, the “inhibition of FLT3 phosphorylation” value [7] was ~30% and 31% and the GI50 ([8]; read-out: GI50) was greater than 100 µM. It also gave a GI50 [8, 15] greater than 100 µM, a GI50 (CCRF-CEM; read-out: GI50) of 11.5 µM and a GI50 (CCRF-CEM; [15]) of 11.5 µM. The GI50 (CNS cancer, 6 cell lines; read-out: GI50) was greater than 100 µM, the GI50 (CNS cancer, 6 cell lines; [15]) was greater than 100 µM and the GI50 ([9]; read-out: GI50) was greater than 100 µM. It also gave a GI50 [9, 15] greater than 100 µM, a GI50 (HL-60; read-out: GI50) of 0.2 µM and a GI50 (HL-60; [15]) of 0.234 µM. For the same compound, the GI50 (Melanoma, 8 cell lines; read-out: GI50) was greater than 100 µM, the GI50 (Melanoma, 8 cell lines; [15]) was greater than 100 µM and the GI50 ([10]; read-out: GI50) was greater than 100 µM. The GI50 [10, 15] was greater than 100 µM, the GI50 ([11]; read-out: GI50) was greater than 100 µM and the GI50 [11, 15] was greater than 100 µM. For the same compound, the GI50 ([12]; read-out: GI50) was greater than 100 µM, the GI50 [12, 15] was greater than 100 µM and the GI50 (RPMI-8226; read-out: GI50) was 23.4 µM. For the same compound, the GI50 (RPMI-8226; [15]) was 23.4 µM, the GI50 ([13]; read-out: GI50) was greater than 100 µM and the GI50 [13, 15] was greater than 100 µM. The GI50 (SR; read-out: GI50) was 0.01 µM, the GI50 (SR; [15]) was 0.01 µM and the GI50 [14] was 8.3 µM. For the same compound, the IC50 (PICA) was greater than 100 µM.
